pIC50: −log10 of the molar value.
Biological target: T1, DYRK1B (dual-specificity tyrosine phosphorylation-regulated kinase 1B) (Homo sapiens, UniProt Q9Y463)
T1 construct: Human DYRK1B recombinant protein (#PV4649)
Test: LanthaScreen Eu Kinase Binding Assay (TR-FRET displacement of kinase tracer […]), recombinant protein

T1 sequence (Q9Y463 whole entry): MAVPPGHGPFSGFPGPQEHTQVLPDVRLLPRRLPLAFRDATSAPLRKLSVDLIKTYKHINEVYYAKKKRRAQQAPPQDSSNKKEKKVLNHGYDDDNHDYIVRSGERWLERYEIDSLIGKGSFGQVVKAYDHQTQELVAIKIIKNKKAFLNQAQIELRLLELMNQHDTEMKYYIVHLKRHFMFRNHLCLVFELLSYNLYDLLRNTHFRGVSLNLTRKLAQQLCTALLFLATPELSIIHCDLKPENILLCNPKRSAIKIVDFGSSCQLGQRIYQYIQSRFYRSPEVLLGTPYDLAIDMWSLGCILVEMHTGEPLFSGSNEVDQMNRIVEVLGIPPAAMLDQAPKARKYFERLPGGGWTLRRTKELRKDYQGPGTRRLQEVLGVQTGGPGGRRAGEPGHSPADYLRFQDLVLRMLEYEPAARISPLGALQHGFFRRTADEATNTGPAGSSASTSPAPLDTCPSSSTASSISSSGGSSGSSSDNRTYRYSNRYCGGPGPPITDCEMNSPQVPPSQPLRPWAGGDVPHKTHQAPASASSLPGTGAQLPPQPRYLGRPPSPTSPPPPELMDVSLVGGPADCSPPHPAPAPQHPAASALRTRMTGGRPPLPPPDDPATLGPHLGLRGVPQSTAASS

**Q.** With `COc1ccc(-c2n[nH]c3ncc(-c4ccc(NC(C)=O)cc4)cc23)cc1` [KS-40070, N-(4-(3-(4-methoxyphenyl)-1H-pyrazolo [3,4-b]pyridin-5-yl)phenyl)acetamide] as the compound, how does the pIC50 read?
**A.** 7.74

Reference: PMC12339561, “Discovery of a selective dual-specificity tyrosine phosphorylation-regulated kinase 1B inhibitor with anti-adipogenic and anti-diabetic activities” (Frontiers in Pharmacology, 2025)
